Data reported in patent US20240247035A1, “STAPLED ANTIMICROBIAL PEPTIDES (STAMPS) AND USES THEREOF” (Lytica Therapeutics, Inc., priority 2021, published 2024).
Values after ≈ are worked out from the molar mass of the structure shown. Bridge positions count the residues as written; N and C are the ends. Square brackets hold non-standard residues; d marks the D form. Peptide text beside a SMILES is read from it. Phe(4-tBu) = CC(C)(C)c1ccc(C[C@H](N)C(=O)O)cc1; S5 = C=CCCC[C@](C)(N)C(=O)O

Tests used:
[1] = 48 hours cytotoxicity assay (CellTiter-Glo), liver toxicity; assay type: cell-based; settings: human
Description: (§1) Cell culture: RPTEC were maintained in MEM media supplemented with growth factors. HEPG2 cell line was maintained in Eagle's Minimum Essential Medium (EMEM) supplemented with fetal bovine serum to a final concentration of 10%.
48 hours cytotoxicity assay: Cells were plated in a 96-well format, and after 4 hour incubation to allow attachment, serial dilutions of StAMPs from a 5 mg/mL water stock, or vehicle, were then added to the cells in a final volume of 100 μl. After incubating at 37° C. for 48 hours, 100 μl of CellTiter-Glo® reagent was added to the cells, and the plates were incubated 10 minutes at room temperature. Luminescence was then measured on a microplate reader.
(§2) Renal toxicity was measured after 90 minutes of incubation, while liver toxicity was measured after 48 hours of incubation with StAMPs. N/A=not tested.

[2] = 90 minute cytotoxicity assay (LDH release), renal toxicity; assay type: cell-based; settings: human
Description: as §1
90 minute cytotoxicity assay: Cells were plated in a 96-well format, and after overnight incubation, media was replaced with fresh media. Serial dilutions of StAMPs from a 5 mg/mL water stock, or vehicle, were added to the cells in a final volume of 100 μl. After incubating at 37° C. for 90 min, 50 μl of cell culture media was transferred to a clear 96-well plate, incubated with 50 μl of lactate dehydrogenase (LDH) assay reagent for 10 min, and absorbance measured at 490 nm on a microplate reader.
as §2

Row | Structure (SMILES) | IC50 at 48 hours [1] [µg/mL] | IC50 at 90 min [2] [µg/mL]
1 | CC[C@H](C)[C@H](NC(=O)[C@H](CCCCN)NC(=O)[C@H](CCCCN)NC(=O)CNC(=O)[C@H](CCCCN)NC(=O)[C@]1(C)CCCC=CCCC[C@](C)(NC(=O)CN)C(=O)N[C@@H](Cc2ccccc2)C(=O)N[C@@H](CO)C(=O)N[C@@H](CCCCN)C(=O)N1)C(=O)N[C@@H](CCCCN)C(=O)N[C@@H](CC(N)=O)C(=O)N[C@@H](CC(C)C)C(=O)N[C@@]1(C)CCCC=CCCC[C@@](C)(C(=O)N[C@@H](CCCCN)C(=O)NCC(N)=O)NC(=O)CNC(=O)[C@H](CO)NC(=O)[C@H]([C@@H](C)CC)NC1=O [compound 1] (H-G[S5]FSK[S5]KGKKIKNL[S5]ISG[S5]KG-NH2; staple 2-6, 15-19) | 47 (≈ 20.5 µM) | 48 (≈ 21 µM)
2 | CC[C@H](C)[C@H](NC(=O)[C@H](CCCCN)NC(=O)[C@H](CCCCN)NC(=O)CNC(=O)[C@H](CCCCN)NC(=O)[C@]1(C)CCCC=CCCC[C@](C)(NC(=O)CN)C(=O)N[C@@H](CCCCN)C(=O)N[C@@H](CO)C(=O)N[C@@H](CCCCN)C(=O)N1)C(=O)N[C@@H](CCCCN)C(=O)N[C@@H](CC(N)=O)C(=O)N[C@@H](CC(C)C)C(=O)N[C@@]1(C)CCCC=CCCC[C@@](C)(C(=O)N[C@@H](CCCCN)C(=O)NCC(N)=O)NC(=O)CNC(=O)[C@H](CO)NC(=O)[C@H]([C@@H](C)CC)NC1=O [compound 2] (H-G[S5]KSK[S5]KGKKIKNL[S5]ISG[S5]KG-NH2; staple 2-6, 15-19) | 109 (≈ 48 µM) | 203 (≈ 89.4 µM)
3 | CC[C@H](C)[C@H](NC(=O)[C@H](CCCCN)NC(=O)[C@H](CCCCN)NC(=O)CNC(=O)[C@H](CCCCN)NC(=O)[C@]1(C)CCCC=CCCC[C@](C)(NC(=O)CN)C(=O)N[C@@H](Cc2ccccc2)C(=O)N[C@@H](CO)C(=O)N[C@@H](CCCCN)C(=O)N1)C(=O)N[C@@H](CCCCN)C(=O)N[C@@H](CC(N)=O)C(=O)N[C@@H](CC(C)C)C(=O)N[C@@]1(C)CCCC=CCCC[C@@](C)(C(=O)N[C@@H](CCCCN)C(=O)NCC(N)=O)NC(=O)[C@H](CCCCN)NC(=O)[C@H](CO)NC(=O)[C@H]([C@@H](C)CC)NC1=O [compound 3] (H-G[S5]FSK[S5]KGKKIKNL[S5]ISK[S5]KG-NH2; staple 2-6, 15-19) | 57 (≈ 24.1 µM) | 119 (≈ 50.4 µM)
4 | CC[C@H](C)[C@H](NC(=O)[C@H](CCCCN)NC(=O)[C@H](CCCCN)NC(=O)CNC(=O)[C@H](CCCCN)NC(=O)[C@]1(C)CCCC=CCCC[C@](C)(NC(=O)CN)C(=O)N[C@@H](Cc2ccccc2)C(=O)N[C@@H](CO)C(=O)N[C@@H](CCCCN)C(=O)N1)C(=O)N[C@@H](CCCCN)C(=O)N[C@@H](CC(N)=O)C(=O)N[C@@H](CC(C)C)C(=O)N[C@@]1(C)CCCC=CCCC[C@@](C)(C(=O)N[C@@H](CCCCN)C(=O)N[C@@H](CCCCN)C(N)=O)NC(=O)CNC(=O)[C@H](CO)NC(=O)[C@H]([C@@H](C)CC)NC1=O [compound 4] (H-G[S5]FSK[S5]KGKKIKNL[S5]ISG[S5]KK-NH2; staple 2-6, 15-19) | 24 (≈ 10.2 µM) | 34 (≈ 14.4 µM)
5 | CC[C@H](C)[C@H](NC(=O)[C@H](CCCCN)NC(=O)[C@H](CCCCN)NC(=O)CNC(=O)[C@H](CCCCN)NC(=O)[C@]1(C)CCCC=CCCC[C@](C)(NC(=O)CN)C(=O)N[C@@H](CCCCN)C(=O)N[C@@H](CO)C(=O)N[C@@H](CCCCN)C(=O)N1)C(=O)N[C@@H](CCCCN)C(=O)N[C@@H](CC(N)=O)C(=O)N[C@@H](CC(C)C)C(=O)N[C@@]1(C)CCCC=CCCC[C@@](C)(C(=O)N[C@@H](CCCCN)C(=O)NCC(N)=O)NC(=O)[C@H](CCCCN)NC(=O)[C@H](CO)NC(=O)[C@H]([C@@H](C)CC)NC1=O [compound 5] (H-G[S5]KSK[S5]KGKKIKNL[S5]ISK[S5]KG-NH2; staple 2-6, 15-19) | 100 (≈ 42.7 µM) | 180 (≈ 76.9 µM)
6 | CC[C@H](C)[C@H](NC(=O)[C@H](CCCCN)NC(=O)[C@H](CCCCN)NC(=O)CNC(=O)[C@H](CCCCN)NC(=O)[C@]1(C)CCCC=CCCC[C@](C)(NC(=O)CN)C(=O)N[C@@H](CCCCN)C(=O)N[C@@H](C(C)C)C(=O)N[C@@H](CCCCN)C(=O)N1)C(=O)N[C@@H](CCCCN)C(=O)N[C@@H](CC(N)=O)C(=O)N[C@@H](CC(C)C)C(=O)N[C@@]1(C)CCCC=CCCC[C@@](C)(C(=O)N[C@@H](CCCCN)C(=O)NCC(N)=O)NC(=O)CNC(=O)[C@H](CO)NC(=O)[C@H]([C@@H](C)CC)NC1=O [compound 6] (H-G[S5]KVK[S5]KGKKIKNL[S5]ISG[S5]KG-NH2; staple 2-6, 15-19) | 200 (≈ 87.6 µM) | 215 (≈ 94.2 µM)
7 | CC[C@H](C)[C@H](NC(=O)[C@H](CCCCN)NC(=O)[C@H](CCCCN)NC(=O)[C@@H](NC(=O)[C@H](CCCCN)NC(=O)[C@]1(C)CCCC=CCCC[C@](C)(NC(=O)CN)C(=O)N[C@@H](CCCCN)C(=O)N[C@@H](CO)C(=O)N[C@@H](CCCCN)C(=O)N1)C(C)C)C(=O)N[C@@H](CCCCN)C(=O)N[C@@H](CC(N)=O)C(=O)N[C@@H](CC(C)C)C(=O)N[C@@]1(C)CCCC=CCCC[C@@](C)(C(=O)N[C@@H](CCCCN)C(=O)NCC(N)=O)NC(=O)CNC(=O)[C@H](CO)NC(=O)[C@H]([C@@H](C)CC)NC1=O [compound 7] (H-G[S5]KSK[S5]KVKKIKNL[S5]ISG[S5]KG-NH2; staple 2-6, 15-19) | 72 (≈ 31.1 µM) | 191 (≈ 82.6 µM)
8 | CC[C@H](C)[C@@H]1NC(=O)[C@@](C)(NC(=O)[C@H](CC(C)C)NC(=O)[C@H](CC(N)=O)NC(=O)[C@H](CCCCN)NC(=O)[C@@H](NC(=O)[C@H](CCCCN)NC(=O)[C@H](CCCCN)NC(=O)CNC(=O)[C@H](CCCCN)NC(=O)[C@]2(C)CCCC=CCCC[C@](C)(NC(=O)CN)C(=O)N[C@@H](CCCCN)C(=O)N[C@@H](CO)C(=O)N[C@@H](CCCCN)C(=O)N2)C(C)C)CCCC=CCCC[C@@](C)(C(=O)N[C@@H](CCCCN)C(=O)NCC(N)=O)NC(=O)CNC(=O)[C@H](CO)NC1=O [compound 8] (H-G[S5]KSK[S5]KGKKVKNL[S5]ISG[S5]KG-NH2; staple 2-6, 15-19) | > 200 | > 200
9 | CC[C@H](C)[C@@H]1NC(=O)[C@@](C)(NC(=O)[C@H](CC(C)C)NC(=O)[C@H](CC(N)=O)NC(=O)[C@H](CCCCN)NC(=O)[C@H](CC(C)C)NC(=O)[C@H](CCCCN)NC(=O)[C@H](CCCCN)NC(=O)CNC(=O)[C@H](C)NC(=O)[C@]2(C)CCCC=CCCC[C@](C)(NC(=O)CN)C(=O)N[C@@H](CCCCN)C(=O)N[C@@H](CO)C(=O)N[C@@H](CCCCN)C(=O)N2)CCCC=CCCC[C@@](C)(C(=O)N[C@@H](CCCCN)C(=O)N[C@@H](CC(N)=O)C(N)=O)NC(=O)CNC(=O)[C@H](CO)NC1=O [compound 9] (H-G[S5]KSK[S5]AGKKLKNL[S5]ISG[S5]KN-NH2; staple 2-6, 15-19) | 107 (≈ 47.1 µM) | 184 (≈ 81 µM)
10 | CC[C@H](C)[C@H](NC(=O)[C@H](CCCCN)NC(=O)[C@H](CCCCN)NC(=O)CNC(=O)[C@H](C)NC(=O)[C@]1(C)CCCC=CCCC[C@](C)(NC(=O)CN)C(=O)N[C@@H](Cc2ccccc2)C(=O)N[C@@H](CO)C(=O)N[C@@H](CCCCN)C(=O)N1)C(=O)N[C@@H](CCCCN)C(=O)N[C@@H](CC(N)=O)C(=O)N[C@@H](CC(C)C)C(=O)N[C@@]1(C)CCCC=CCCC[C@@](C)(C(=O)N[C@@H](CCCCN)C(=O)N[C@@H](CC(N)=O)C(N)=O)NC(=O)CNC(=O)[C@H](CO)NC(=O)[C@H]([C@@H](C)CC)NC1=O [compound 10] (H-G[S5]FSK[S5]AGKKIKNL[S5]ISG[S5]KN-NH2; staple 2-6, 15-19) | 16 (≈ 6.99 µM) | 18 (≈ 7.86 µM)
11 | CC[C@H](C)[C@H](NC(=O)[C@H](CCCCN)NC(=O)[C@H](CCCCN)NC(=O)CNC(=O)[C@H](C)NC(=O)[C@]1(C)CCCC=CCCC[C@](C)(NC(=O)CN)C(=O)N[C@@H](CCCCN)C(=O)N[C@@H](CO)C(=O)N[C@@H](CCCCN)C(=O)N1)C(=O)N[C@@H](CCCCN)C(=O)N[C@@H](CC(N)=O)C(=O)N[C@@H](CC(C)C)C(=O)N[C@@]1(C)CCCC=CCCC[C@@](C)(C(=O)N[C@@H](CCCCN)C(=O)N[C@@H](CC(N)=O)C(N)=O)NC(=O)CNC(=O)[C@H](CO)NC(=O)[C@H]([C@@H](C)CC)NC1=O [compound 11] (H-G[S5]KSK[S5]AGKKIKNL[S5]ISG[S5]KN-NH2; staple 2-6, 15-19) | 125 (≈ 55 µM) | 186 (≈ 81.9 µM)
12 | CC[C@H](C)[C@@H]1NC(=O)[C@@](C)(NC(=O)[C@H](CC(C)C)NC(=O)[C@H](CC(N)=O)NC(=O)[C@H](CCCCN)NC(=O)[C@H](CC(C)C)NC(=O)[C@H](CCCCN)NC(=O)[C@H](CCCCN)NC(=O)CNC(=O)[C@H](C)NC(=O)[C@]2(C)CCCC=CCCC[C@](C)(NC(=O)CN)C(=O)N[C@@H](CCCCN)C(=O)N[C@@H](CO)C(=O)N[C@@H](CCCCN)C(=O)N2)CCCC=CCCC[C@@](C)(C(=O)N[C@@H](CCCCN)C(=O)NCC(N)=O)NC(=O)CNC(=O)[C@H](CO)NC1=O [compound 12] (H-G[S5]KSK[S5]AGKKLKNL[S5]ISG[S5]KG-NH2; staple 2-6, 15-19) | 91 (≈ 41.1 µM) | > 200
13 | CC[C@H](C)[C@@H]1NC(=O)[C@@](C)(NC(=O)[C@H](CC(C)C)NC(=O)[C@H](CC(N)=O)NC(=O)[C@H](CCCCN)NC(=O)[C@H](Cc2ccc(C(C)(C)C)cc2)NC(=O)[C@H](CCCCN)NC(=O)[C@H](CCCCN)NC(=O)CNC(=O)[C@H](CCCCN)NC(=O)[C@]2(C)CCCC=CCCC[C@](C)(NC(=O)CN)C(=O)N[C@@H](CCCCN)C(=O)N[C@@H](CO)C(=O)N[C@@H](CCCCN)C(=O)N2)CCCC=CCCC[C@@](C)(C(=O)N[C@@H](CCCCN)C(=O)N[C@@H](CC(N)=O)C(N)=O)NC(=O)CNC(=O)[C@H](CO)NC1=O [compound 18] (H-G[S5]KSK[S5]KGKK[Phe(4-tBu)]KNL[S5]ISG[S5]KN-NH2; staple 2-6, 15-19) | 21 (≈ 8.68 µM) | –
